Laboratory results as given in patent US9938238B2, “Anti-auxin compounds” (priority 2015, dated 2018).

Assays:
Format in all cases: in vivo, Arabidopsis
[1] = test system: chiB and PDF1.2 expression; assay: Expression of ethylene regulated defense genes in leaves; details: 24 h
Protocol: (§1) Total RNA was extracted from leaf tissue using the RNeasy Plant Mini Kit (Qiagen, Valencia, Calif.). 10 μg of total RNA was separated by electrophoresis in a 1% (w/v) denaturing agarose gel, after which the RNA was blotted to Zeta-Probe GT Blotting Membrane (Bio-Rad, Hercules, Calif.). ^32P-labelled probes were generated using the RadPrime DNA labeling system (Invitrogen).
For this analysis, Arabidopsis plants were grown hydroponically for 13 d after which they were treated with or without 10 μM ACC in the absence or presence of 25 μM PA, with all samples exposed to 10 μM+/−JA for the 24 h treatment period. […] Auxin functions in a synergistic manner with ethylene and JA to control expression of PDF1.2, with addition of auxin resulting in its hyperinduction (Robles et al., 2012).

[2] = test system: ETR2, AtEBP, ACO2 expression; assay: Northern analysis of ethylene responsive gene expression in seedlings; details: Col-0 wt, hydroponic, dark 4 d
Protocol: as §1
Manifestation of ethylene response is dependent on transcriptional induction of ethylene-regulated genes (Alonso et al., 2003; Chao et al., 1997; Solano et al., 1998). This relies on two primary transcription factors, EIN3 and EIL1, with mutational loss of both causing nearly complete ethylene insensitivity. It could be predicted that since PA treatment limits ethylene response it would also reduce or prevent ethylene inducible gene expression similar to the ethylene insensitive ein3-1; eil1-1 double mutant. To test this, Col-0 wt seedlings were treated with 5 μM AgNO3 or increasing concentrations of ethylene in the absence or presence of 25 μM PA, which is also a concentration that results in blockage of ethylene response. […] The latter two genes are not properly expressed in a group of enhanced ethylene response Arabidopsis mutants, with these argued to be members of a subset of ethylene regulated genes whose products are required for controlling the magnitude of ethylene response (Christians and Larsen, 2007; Christians et al., 2008; Deslauriers and Larsen, 2010; Robles et al., 2007).
In contrast to PA treatment, auxin has an antagonistic relationship regarding induction of this same subset of genes. Col-0 wt seedlings were grown hydroponically in the dark for 4 d in the presence of 5 μM AgNO3, 1 μM ACC or 10 μM ACC in the absence or presence of 10 μM 1-naphthaleneacetic acid (NAA) after which tissue was collected for RNA isolation and Northern analysis.

[3] = test system: ctr1-3 seedlings; assay: Seedling triple response of constitutive ethylene response mutant ctr1-3 (library screen and follow-up); details: etiolated ctr1-3 in air, 4 d, 50 μM of each chemical
Protocol: For screening for chemicals that reduce ethylene response, Arabidopsis ctr1-3 seeds were planted on a microtiter plate containing PNS media in the presence of individual chemicals (50 μM concentration of each) from the Microsource Spectrum Collection. Seedlings were grown in the dark for 4 d after which they were scored for manifestation of the ethylene responsive triple response. For all other growth experiments, seedlings were planted on PNS media supplemented with the relevant chemical (Deslauriers and Larsen, 2010). For conditions requiring pamoic acid, media was supplemented with Pamoic acid disodium salt (Sigma Life Science, St. Louis, Mo.). Measurement of ethylene production was conducted as previously described (Deslauriers and Larsen, 2010).
A chemical library screen was performed in which etiolated seedlings of the constitutive ethylene response mutant, ctr1-3, were grown in air for 4 d in the presence of chemicals from the Microsource Spectrum Collection, a bioactive and natural compound library consisting of 2000 different compounds. ctr1-3 seedlings were scored for presentation of the ethylene regulated seedling triple response, consisting of severe hypocotyl and root shortening and exaggerated apical hook formation.

[4] = test system: Col-0 wt seedlings; assay: Blockage of auxin dependent inhibition of root growth; details: for root length, auxin alone: light, 7 d, 150 nM NAA or 300 nM IAA versus untreated roots
Protocol: For screening for chemicals that reduce ethylene response, Arabidopsis ctr1-3 seeds were planted on a microtiter plate containing PNS media in the presence of individual chemicals (50 μM concentration of each) from the Microsource Spectrum Collection. Seedlings were grown in the dark for 4 d after which they were scored for manifestation of the ethylene responsive triple response. For all other growth experiments, seedlings were planted on PNS media supplemented with the relevant chemical (Deslauriers and Larsen, 2010). For conditions requiring pamoic acid, media was supplemented with Pamoic acid disodium salt (Sigma Life Science, St. Louis, Mo.). Measurement of ethylene production was conducted as previously described (Deslauriers and Larsen, 2010). […]

[5] = test system: DR5::GUS; assay: GUS analysis of auxin responsive DR5::GUS reporter line; details: for GUS activity in root tip and mature region of the root, auxin alone: 100 nM NAA or 750 nM IAA
Protocol: GUS analysis of DR5::GUS lines was performed as previously described (Ni et al., 2001).
Auxin responsiveness has also been assessed using the Arabidopsis DR5::GUS transgenic line in which several auxin response elements are fused upstream of the GUS reporter gene (Ni et al., 2001). Normally, treatment of DR5::GUS lines with exogenous auxin leads to increased GUS levels, which can be visualized through accumulation of blue color upon adding X-Gluc.

Structure (SMILES): NC1(C(=O)O)CC1 [ACC, 1-aminocyclopropane-1-carboxylic acid]
- chiB and PDF1.2 expression ([1]; plants grown 13 d hydroponically, 10 μM ACC, 10 μM JA): increased expression
- induction of ACO2 and AtEBP ([2]; 1 μM or 10 μM ACC without NAA): normal ethylene responsive induction

Structure (SMILES): CN1CCCN=C1/C=C/c1cccs1 [Pyrantel pamoate]
- apical hook formation in chemical library screen [3]: blocked apical hook formation
- root length in chemical library screen [3]: measurably longer roots

Structure (SMILES): O=C(O)Cc1c[nH]c2ccccc12 [IAA, indole-3-acetic acid]
- root length, IAA alone ([4]; 5 days, 300 nM IAA in the absence of Tolmetin (FIG. 6)): severely inhibitory to roots
- root length, auxin alone [4]: severe root growth inhibition
- GUS activity in root tip and mature region of the root, auxin alone [5]: increased GUS activity
- lateral root initiation, auxin alone ([5]; 750 nM IAA (FIG. 8)): promotes initiation of lateral roots

Structure (SMILES): O=C(O)Cc1cccc2ccccc12 [NAA, 1-naphthaleneacetic acid]
- chiB and PDF1.2 levels ([1]; 10 μM ACC supplemented with 250 nM NAA): far greater than what was observed following treatment with ACC alone
- induction of ACO2 and AtEBP ([2]; 1 μM or 10 μM ACC plus 10 μM NAA): nearly eliminated induction
- ETR2 expression ([2]; ACC treatments plus 10 μM NAA): no obvious effect on ETR2 expression
- root length, auxin alone [4]: severe root growth inhibition
- GUS activity in root tip and mature region of the root, auxin alone [5]: increased GUS activity
